Measurements published in the supplement of paper PMC7214452.

How the values were obtained:
Assay in all cases: normalized area under the dose-response curve (viability relative to DMSO control) (fraction); higher = less sensitive (more viable cells)
Settings in all cases: exposure time not given
KMS11 (cancer type: MM) = system: KMS11 (cancer type: MM)
Method: (§1)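 25 myeloma and 15 non-Hodgkin lymphoma cell lines were exposed to each of 76 drugs as 7-point log dilutions (0.01 nM–10 µM) in duplicate. Viability was read with CellTiter-Glo and normalised to DMSO (0.1%) and staurosporine (10 µM) plate controls. Normalised AUC was calculated by the trapezoidal method relative to the negative control.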

[1] = system: OCI-MY5/CRBN (cancer type: MM)
Method: as §1

MM1.R (cancer type: MM) = system: MM1.R (cancer type: MM)
Method: as §1

KMS26 (cancer type: MM) = system: KMS26 (cancer type: MM)
Method: as §1

[2] = system: SR-786 (cancer type: TCL)
Method: as §1

EJM (cancer type: MM) = system: EJM (cancer type: MM)
Method: as §1

[3] = system: OCI-MY5/Vec (cancer type: MM)
Method: as §1

[4] = system: SU-DHL1 (cancer type: TCL)
Method: as §1

[5] = system: Karpas-299 (cancer type: TCL)
Method: as §1

[6] = system: OCI-LY3 (cancer type: DLBCL)
Method: as §1

My-La (cancer type: TCL) = system: My-La (cancer type: TCL)
Method: as §1

Se-Ax (cancer type: TCL) = system: Se-Ax (cancer type: TCL)
Method: as §1

[7] = system: OCI-MY7 (cancer type: MM)
Method: as §1

JJN3 (cancer type: MM) = system: JJN3 (cancer type: MM)
Method: as §1

XG2 (cancer type: MM) = system: XG2 (cancer type: MM)
Method: as §1

[8] = system: OCI-LY19 (cancer type: DLBCL)
Method: as §1

[9] = system: KMS28BM (cancer type: MM)
Method: as §1

[10] = system: KMS28PE (cancer type: MM)
Method: as §1

[11] = system: NCI-H929 (cancer type: MM)
Method: as §1

[12] = system: RPMI 8226 (cancer type: MM)
Method: as §1

[13] = system: SU-DHL2 (cancer type: DLBCL)
Method: as §1

FR4 (cancer type: MM) = system: FR4 (cancer type: MM)
Method: as §1

LP1 (cancer type: MM) = system: LP1 (cancer type: MM)
Method: as §1

[14] = system: OCI-MY5 (cancer type: MM)
Method: as §1

[15] = system: JeKo-1 (cancer type: Mantle)
Method: as §1

[16] = system: SU-DHL6 (cancer type: DLBCL)
Method: as §1

[17] = system: KMS12PE (cancer type: MM)
Method: as §1

U266 (cancer type: MM) = system: U266 (cancer type: MM)
Method: as §1

[18] = system: Mino (cancer type: Mantle)
Method: as §1

[19] = system: Granta-519 (cancer type: Mantle)
Method: as §1

[20] = system: HuT 78 (cancer type: TCL)
Method: as §1

[21] = system: OCI-LY1 (cancer type: DLBCL)
Method: as §1

AMO1 (cancer type: MM) = system: AMO1 (cancer type: MM)
Method: as §1

SKMM2 (cancer type: MM) = system: SKMM2 (cancer type: MM)
Method: as §1

L363 (cancer type: MM) = system: L363 (cancer type: MM)
Method: as §1

MM1.S (cancer type: MM) = system: MM1.S (cancer type: MM)
Method: as §1

KMS34 (cancer type: MM) = system: KMS34 (cancer type: MM)
Method: as §1

KMS18 (cancer type: MM) = system: KMS18 (cancer type: MM)
Method: as §1

[22] = system: JVM2 (cancer type: Mantle)
Method: as §1

OPM2 (cancer type: MM) = system: OPM2 (cancer type: MM)
Method: as §1

| SMILES | normalized area under the dose-response curve (KMS11 (cancer type: MM)) | normalized area under the dose-response curve [1] | normalized area under the dose-response curve (MM1.R (cancer type: MM)) | normalized area under the dose-response curve (KMS26 (cancer type: MM)) | normalized area under the dose-response curve [2] | normalized area under the dose-response curve (EJM (cancer type: MM)) | normalized area under the dose-response curve [3] | normalized area under the dose-response curve [4] | normalized area under the dose-response curve [5] | normalized area under the dose-response curve [6] | normalized area under the dose-response curve (My-La (cancer type: TCL)) | normalized area under the dose-response curve (Se-Ax (cancer type: TCL)) | normalized area under the dose-response curve [7] | normalized area under the dose-response curve (JJN3 (cancer type: MM)) | normalized area under the dose-response curve (XG2 (cancer type: MM)) | normalized area under the dose-response curve [8] | normalized area under the dose-response curve [9] | normalized area under the dose-response curve [10] | normalized area under the dose-response curve [11] | normalized area under the dose-response curve [12] | normalized area under the dose-response curve [13] | normalized area under the dose-response curve (FR4 (cancer type: MM)) | normalized area under the dose-response curve (LP1 (cancer type: MM)) | normalized area under the dose-response curve [14] | normalized area under the dose-response curve [15] | normalized area under the dose-response curve [16] | normalized area under the dose-response curve [17] | normalized area under the dose-response curve (U266 (cancer type: MM)) | normalized area under the dose-response curve [18] | normalized area under the dose-response curve [19] | normalized area under the dose-response curve [20] | normalized area under the dose-response curve [21] | normalized area under the dose-response curve (AMO1 (cancer type: MM)) | normalized area under the dose-response curve (SKMM2 (cancer type: MM)) | normalized area under the dose-response curve (L363 (cancer type: MM)) | normalized area under the dose-response curve (MM1.S (cancer type: MM)) | normalized area under the dose-response curve (KMS34 (cancer type: MM)) | normalized area under the dose-response curve (KMS18 (cancer type: MM)) | normalized area under the dose-response curve [22] | normalized area under the dose-response curve (OPM2 (cancer type: MM)) |
| --- | --- | --- | --- | --- | --- | --- | --- | --- | --- | --- | --- | --- | --- | --- | --- | --- | --- | --- | --- | --- | --- | --- | --- | --- | --- | --- | --- | --- | --- | --- | --- | --- | --- | --- | --- | --- | --- | --- | --- | --- |
| CC(C)C[C@H](NC(=O)[C@H](Cc1ccccc1)NC(=O)c1cnccn1)B(O)O [Bortezomib] | 0.131 | 0.0146 | 0.06 | 0.0685 | 0.285 | 0.0632 | 0.015 | 0.1 | 0.332 | 0.0249 | 0.23 | 0.102 | 0.08 | 0.343 | 0.05 | 0.111 | 0.0704 | 0.0881 | 0.09 | 0.261 | 0.0391 | 0.7 | 0.255 | 0.116 | 0.009 | 0.536 | 0.26 | 0.167 | 0.0129 | 0.0456 | 0.192 | 0.0798 | 0.0751 | 0.212 | 0.0891 | 0.09 | 0.196 | 0.0645 | 0.0575 | 0.197 |
| COc1cc(Nc2c(C#N)cnc3cc(OCCCN4CCN(C)CC4)c(OC)cc23)c(Cl)cc1Cl [Bosutinib] | 0.5 | 0.933 | 0.77 | 0.863 | 0.872 | 0.663 | 0.914 | 0.667 | 0.701 | 0.792 | 0.795 | 0.736 | 0.79 | 0.571 | 0.501 | 0.898 | 0.629 | 0.54 | 0.8 | 0.651 | 0.836 | 0.598 | 0.451 | 0.39 | 0.889 | 0.924 | 0.58 | 0.874 | 0.653 | 0.771 | 0.714 | 0.856 | 0.45 | 0.697 | 0.525 | 0.83 | 0.447 | 0.798 | 0.534 | 0.606 |
| COc1cc(N2CCC(N3CCN(C)CC3)CC2)ccc1Nc1ncc(Cl)c(Nc2ccccc2P(C)(C)=O)n1 [Brigatinib] | 0.466 | 0.835 | 0.51 | 0.611 | 0.556 | 0.55 | 0.785 | 0.123 | 0.504 | 0.921 | 0.76 | 0.748 | 0.83 | 0.527 | 0.745 | 0.803 | 0.539 | 0.191 | 0.39 | 0.351 | 0.936 | 0.723 | 0.598 | 0.574 | 0.815 | 0.891 | 0.79 | 0.5 | 0.863 | 0.84 | 0.524 | 0.989 | 0.525 | 0.789 | 0.538 | 0.46 | 0.308 | 0.469 | 0.855 | 0.179 |
| Nc1cc(C(F)(F)F)c(-c2cc(N3CCOCC3)nc(N3CCOCC3)n2)cn1 [Buparlisib] | 0.477 | 0.605 | 0.28 | 0.498 | 0.473 | 0.654 | 0.561 | 0.375 | 0.513 | 0.571 | 0.627 | 0.431 | 0.71 | 0.55 | 0.303 | 0.564 | 0.562 | 0.38 | 0.3 | 0.358 | 0.689 | 0.454 | 0.493 | 0.509 | 0.365 | 0.685 | 0.55 | 0.443 | 0.516 | 0.493 | 0.348 | 0.562 | 0.424 | 0.573 | 0.414 | 0.3 | 0.165 | 0.445 | 0.497 | 0.392 |
